Results published in US10987349B2, “Antitumor agent and bromodomain inhibitor” (FUJIFILM Corporation, priority 2016, dated 2021).

Key:
[1] = test system: DU-145; test: Cell growth test (Cell Titer Blue) DU-145; type: cell-based; settings: Homo sapiens, 72 h, DU-145, Prostate cancer, 3 days
Method: (§1) Moreover, the compound of Example 14 was subjected to a cell growth test using various types of cell lines.
(§2) All cell lines other than the below-noticed cells were each seeded in a well plate, in which an RPMI-1640 medium supplemented with penicillin/streptomycin and FBS with a final concentration of 10% was placed. The human prostate cancer cell line VCaP (ATCC) was seeded in a well plate, in which DMEM medium supplemented with penicillin/streptomycin and FBS with a final concentration of 10% was placed. […] Thereafter, using Enspire Multimode Plate Reader (PerkinElmer), the amount of fluorescence at an excitation wavelength of 531 nm and a fluorescence wavelength of 615 nm was measured. Since the amount of fluorescence is in proportion to the concentration of a florescent product resorufin that is converted from resazurin as a redox dye by living cells, the amount of fluorescence was used as an indicator of the number of living cells. The growth inhibition percentage of the test compound in each concentration was calculated according to the following equation. Growth inhibition percentage (%)=(amount of fluorescence in test compound−added well)/(amount of fluorescence in DMSO−added well)×100 […]

[2] = test system: NOMO-1; test: Cell growth test (Cell Titer Blue) NOMO-1; type: cell-based; settings: Homo sapiens, 72 h, NOMO-1, Acute myeloid leukemia, 3 days
Method: as §1, §2

[3] = Intravenous administration toxicity test on rats; type: in vivo, rat
Method: With reference to the above-described findings, the compound of the present example was administered to rats via repeated intravenous administration, and the influence of the compound on the body weight and the digestive tract was then evaluated.
The compound of Example 14 was dissolved in a solvent (a normal saline containing 1 equivalent of hydrochloric acid), and the obtained solution was then intravenously administered to 6-week-old male SD rats (Charles River Laboratories Japan) at a dose of 30 to 60 mg/kg, once a day, for 7 days. As a negative control, a solvent administration group involving administration of a normal saline was established. At the time of the final administration, the plasma concentration of the compound of Example 14 was measured. […] Moreover, a weight reduction was not observed during the administration period. Furthermore, on the day following the final administration, pathological evaluation was carried out.

[4] = test system: MOLT-4; test: Cell growth test (Cell Titer Blue) MOLT-4; type: cell-based; settings: Homo sapiens, 72 h, MOLT-4, Acute lymphoblastic leukemia, 3 days
Method: as §1, §2

[5] = test system: MDA-MB-435; test: Cell growth test (Cell Titer Blue) MDA-MB-435; type: cell-based; settings: Homo sapiens, 72 h, MDA-MB-435, Melanoma, 3 days
Method: as §1, §2

[6] = test system: human prostate cancer cell line VCaP; test: Cell growth test (Cell Titer Blue) VCaP; type: cell-based; settings: 72 h, 3 days
Method: as §1, §2

[7] = test system: T-24; test: Cell growth test (Cell Titer Blue) T-24; type: cell-based; settings: Homo sapiens, 72 h, T-24, Bladder cancer, 3 days
Method: as §1, §2

[8] = test system: WSU-DLCL2; test: Cell growth test (Cell Titer Blue) WSU-DLCL2; type: cell-based; settings: Homo sapiens, WSUDLCL2, 72 h, WSU-DLCL2, Lymphoma, 3 days
Method: as §1, §2

[9] = test system: Jurkat; test: Cell growth test (Cell Titer Blue) Jurkat; type: cell-based; settings: Homo sapiens, 72 h, Acute lymphoblastic leukemia, 3 days
Method: as §1, §2

[10] = test system: KG-1; test: Cell growth test (Cell Titer Blue) KG-1; type: cell-based; settings: Homo sapiens, 72 h, KG-1, Acute myeloid leukemia, 3 days
Method: as §1, §2

[11] = test system: MOLT-3; test: Cell growth test (Cell Titer Blue) MOLT-3; type: cell-based; settings: Homo sapiens, 72 h, MOLT-3, Acute lymphoblastic leukemia, 3 days
Method: as §1, §2

[12] = test system: MDA-MB-231; test: Cell growth test (Cell Titer Blue) MDA-MB-231; type: cell-based; settings: Homo sapiens, 72 h, MDA-MB-231, Breast cancer, 3 days
Method: as §1, §2

[13] = test system: T47D; test: Cell growth test (Cell Titer Blue) T47D; type: cell-based; settings: Homo sapiens, 72 h, Breast cancer, 3 days
Method: as §1, §2

[14] = test system: NCI-H69; test: Cell growth test (Cell Titer Blue) NCI-H69; type: cell-based; settings: Homo sapiens, 72 h, NCI-H69, Lung cancer, 3 days
Method: as §1, §2

[15] = male SD rats, intravenously 30 to 60 mg/kg, once a day, 7 days

SMILES: CCn1c(=O)cc(C2CCN(C)CC2)c2cc(C(=O)N(C)c3ccc(C)cc3)ccc21 [Example 14, 1-Ethyl-N-methyl-N-(4-methylphenyl)-4-(1-methylpiperidin-4-yl)-2-oxo-1,2-dihydroquinoline-6-carboxamide]
- GI50 [1]: 1.43 µM
- GI50 [2]: 0.062 µM
- plasma concentration at the time of the final administration [3, 15]: increased in proportion to the applied dose
- weight reduction during the administration period [3, 15]: not observed
- pathological evaluation of gastrointestinal epithelial cells including gastrointestinal epithelial stem cells ([3]; male SD rats, intravenously 30 to 60 mg/kg, once a day, 7 days, day following the final administration): no disorders were found
- AUC without weight reduction relative to the AUC upon intravenous administration in Test Example 3 ([3]; rats, intravenous): 3.8 times
- GI50 [4]: 0.057 µM
- GI50 [5]: 2.78 µM
- GI50 [6]: 0.361 µM
- GI50 [7]: 3.04 µM
- GI50 [8]: 0.091 µM
- GI50 [9]: 0.129 µM
- GI50 [10]: 0.057 µM
- GI50 [11]: 0.317 µM
- GI50 [12]: 0.085 µM
- GI50 [13]: 0.286 µM
- GI50 [14]: 0.975 µM
